Laboratory results reported in patent US20180303845A1, “USE OF TLR8 AGONISTS TO TREAT CANCER” (VentiRx Pharmaceuticals, Inc., priority 2015, published 2018).

What was measured:
EGFR^| UM-22B HNC cells = assay: 51Cr release assay of cetuximab-mediated ADCC by motolimod-pre-treated PBMC or isolated NK; format: cell-based
Description: (§1) PBMC cytokine release was also measured using a multiplex cytokine assay. FcγR III-158 genotype was determined using a quantitative PCR-based assay kit. Significant differences in ADCC by FcγR Ma or TLR8 genotype were determined using a Kruskal-Wallis one-way analysis of variance, and a post hoc Mann-Whitney non-parametric t test was performed for differences between groups. For cytokine analysis, a Mann-Whitney non-parametric test was performed.

[1] = test system: recurrent or metastatic SCCHN; details: cited from earlier work
PBMC = PBMC cytokine release, multiplex cytokine assay; format: cell-based
Description: as §1

HNC = details: cited from earlier work

For `CCCN(CCC)C(=O)C1=Cc2ccc(-c3ccc(C(=O)N4CCCC4)cc3)cc2N=C(N)C1` [motolimod, 2-amino-N,N-dipropyl-8-[4-(pyrrolidin-1-ylcarbonyl)phenyl]-3H-1-benzazepine-4-carboxamide], the “cetuximab-mediated ADCC by TLR8 stimulated PBMC from HNC patients” value (EGFR^| UM-22B HNC cells; PBMC from HNC patients, p=0.0262) was “more avid effectors”, the “enhancement of ADCC lytic activity in NK, FcγR IIIc FF genotype” value (EGFR^| UM-22B HNC cells; motolimod 250 nM 18 hr pre-treatment, cetuximab 10 μg/mL, 4 hr, FF genotype) was 2.6 fold and the “enhancement of ADCC lytic activity in NK, VF genotype” value (EGFR^| UM-22B HNC cells; motolimod 250 nM 18 hr pre-treatment, cetuximab 10 μg/mL, 4 hr, VF genotype) was 1.7 fold. For the same compound, the “enhancement of ADCC lytic activity in NK, VV genotype” value (EGFR^| UM-22B HNC cells; motolimod 250 nM 18 hr pre-treatment, cetuximab 10 μg/mL, 4 hr, VV genotype) was 1.8 fold, the “cetuximab-mediated ADCC against HNC cells” value (EGFR^| UM-22B HNC cells; summary statement) was “enhanced” and the “clinical activity (pharmacologic evidence)” value ([1]; in combination with cetuximab, escalating doses of motolimod) was “dose-dependent clinical activity”. For the same compound, the safety profile ([1]; motolimod days 1, 8, 15 in combination with weekly cetuximab, 28-day cycles) was “acceptable safety profile”, the “IFN-γ secretion, treated versus untreated PBMC” value (PBMC; p<0.0001) was “significantly higher levels” and the “TNF-α secretion, treated versus untreated PBMC” value (PBMC; p<0.0001) was “significantly higher levels”. The “IL-12p40 secretion, treated versus untreated PBMC” value (PBMC; p=0.0002) was “significantly higher levels”, the “IL-12p70 secretion, treated versus untreated PBMC” value (PBMC; p=0.03) was “significantly higher levels” and the “cetuximab-mediated ADCC and DC IVS of CD8^+ T cells in HNC” value (HNC; in vitro) was “significantly enhances”. The “DC maturation and cross-priming of CD8^+ cells” value (HNC; motolimod in combination with cetuximab) was “enhances”.
